The numbers were not newly measured in patent publication US7834015B2, “Pyrrolo[1,2-a] pyrazin-1(2H)-one and pyrrolo[1,2-d][1,2,4]triazin-1(2H)-one derivatives as inhibitors of poly(ADP-ribose)polymerase (PARP)” (Instituto di Ricerche Di Biologia Molecolare P. Angeletti …, priority 2006, dated 2010), which cites them from elsewhere.

The data set relates to ischemia and reperfusion of the heart or skeletal muscle. Particulars: rabbits.

Consider `Oc1cccc2c(O)nccc12` [1,5-dihydroxyisoquinoline], for which the reduced infarct size (single injection 1 mg/kg) is on record as 38-48%.

As for `NC(=O)c1cccc(N)c1` [3-amino-benzamide], the “reductions in infarct size in the heart” value (single injection 10 mg/kg, one minute before occlusion or one minute before reperfusion) is recorded as 32-42%.
